These results are taken from US20120135053A1, “NANOPARTICULATE TELMISARTAN COMPOSITIONS AND PROCESS FOR THE PREPARATION THEREOF” (priority 2009, published 2012).

The nature of data set [1]: Comparative dissolution test in distillate water. The conditions noted are these: UV-VIS. Format: physicochemical. The procedure: The suspension was stirred for 1, 5, 10, 20 and 60 minutes and then it was filtered by 0.2 μm disposable syringe filter. Telmisartan concentration was determined by UV-VIS spectrophotometer (Agilent 8453).
A short description of data set [2]: Visual observation of wettability by stereomicroscope. It counts as physicochemical. The conditions noted are these: one drop of distillate water on 0.1 mg powder.
The conditions of data set [3]: cited from earlier work.
For data set [4] the following is noted: cited from earlier work. This is another data set of the same source.
Data set [5] in a line: in vivo. The settings on record: male, Wistar, rat, po, 30 mg/kg.
Method: Both test substances were administered via gastric tube in a dosing volume of 5 ml/kg. The vehicle of the test items was sterile 0.9% NaCl solution and the suspension was kept homogenous by continuous stirring during treatment in order to minimize the error resulting from the sedimentation.
Male Wistar rats (purchased from Laboratory Animal Center, University of Szeged) were maintained on a standard pellet rodent diet (Bioplan Ltd, Isaszeg, Hungary) under temperature and light-controlled conditions with tap water available ad libitum. The acclimatization period was at least 4 days. […] All animals were fasting for 16 hours before oral treatment. […] Water was available immediately after treatment for all animals. […] Serum samples were prepared by centrifugation (7000 rpm, 10 min, 4° C.) of the clotted blood within 60 minutes and were stored at −20° C. till analysis.
An aliquot of 200 μl serum was combined with 20 μl of internal standard working solution and 1.2 ml acetonitrile for protein precipitation. The mixture was vortexed for 1 min and centrifuged at 12000 rpm for 10 min at 4° C. The supernatants were evaporated to dryness under a stream of nitrogen at 40° C. and reconstituted with 200 μl of water—methanol (50:50 v/v) and 20 μl was injected into the HPLC system.
Unpaired t-test was used to statistically compare the serum concentrations belonging to the same time points. […]
In data set [6] the test system is plasma proteins, mainly albumin and α1—acid glycoprotein. The settings on record: cited from earlier work.

Like-named read-outs stand apart in the source and are kept apart here.

Broadly, the AUC is concentration integrated over time. For `CCCc1nc2c(C)cc(-c3nc4ccccc4n3C)cc2n1Cc1ccc(-c2ccccc2C(=O)O)cc1` [Telmisartan, 4′-[(1,4′-dimethyl-2′-propyl [2,6′-bi-1H-benzimidazol]-1′-yl)methyl]-[1,1′-biphenyl]-2-carboxylic acid], the “dissolved Telmisartan content” value in data set [1] is given as “cannot be detected”. For the same compound, the wettability result in data set [2] was “stayed in their aggregated state”. The “reduction in AUC by food” value in data set [3] (40 mg tablet) is on record as “about 6%”; in data set [3] (160 mg dose), “about 20%”. Moreover, the results for the absolute bioavailability in data set [3] (40 mg) and in data set [3] (160 mg) were 42% and 58%, respectively. Also, in data set [3] (after a single dose), the “glucuronide share of the measured radioactivity in plasma” value is reported as “approximately 11%”. The “involvement of cytochrome P450 isoenzymes in metabolism” value in data set [3] (in vivo) is reported as “not involved”. In addition, in data set [3] (in vivo), the “terminal elimination half life” value was “approximately 24 hours”. Moreover, the total plasma clearance in data set [3] (in vivo) was over 800 mL/min. Further, in data set [3] (in vivo), the volume of distribution entry is “approximately 500 liters”. In addition, the “amount found in urine, % of total radioactivity” value in data set [3] (intravenous 14C-labeled Telmisartan) was 0.91%; in data set [3] (oral 14C-labeled Telmisartan) it was 0.49%. For the same compound, the “administered dose eliminated unchanged in feces via biliary excretion” value in data set [3] (intravenous or oral 14C-labeled Telmisartan) was over 97%. Besides, in data set [3] (once daily dosing), the “plasma concentrations with once daily dosing, % of peak plasma concentrations” value is 10-25%. Also, in data set [3] (repeated once daily dosing), the “accumulation index in plasma” value is recorded as 1.5 to 2.0. In addition, the solubility entry in data set [4] (hydrochloric acid) is listed as “insoluble”; in data set [4] (strong acid) it was “sparingly soluble”; in data set [4] (strong base) it was “soluble”; in data set [4] (water and pH range of 3 to 9) it was “practically insoluble”. This compound also had an AUC in data set [5] of 15700 ng·h/mL. Also, the plasma protein binding in data set [6] is given as over 99.5%.
